In US8008279B2, “Compound—827” (AstraZeneca AB, priority 2007, dated 2011):

Target: T1, rhuman cathepsin K (Homo sapiens, UniProt P43235)
T1 sequence (P43235 115-329): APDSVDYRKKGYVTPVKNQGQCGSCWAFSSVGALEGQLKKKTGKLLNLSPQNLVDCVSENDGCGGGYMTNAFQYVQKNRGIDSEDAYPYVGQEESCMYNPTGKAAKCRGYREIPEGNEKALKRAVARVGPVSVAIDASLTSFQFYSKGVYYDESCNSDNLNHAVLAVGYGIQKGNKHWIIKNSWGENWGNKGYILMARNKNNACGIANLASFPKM
Test: Assay for identification of Cathepsin K inhibitors (QFRET, cleavage of Z-Phe-Arg-AMC)
Assay type: biochemical
Details: 0.5 nM rhuman cathepsin K, Z-Phe-Arg-AMC substrate, 30 min pre-incubation, 1 h incubation at room temperature; mean of two separate occasions
Protocol: 0.5 nM [final] rhuman cathepsin K in phosphate buffer was added to a 384-well black microtitre plate containing investigative compounds. The enzyme and compound were pre-incubated at room temperature for 30 minutes before the addition of […] [final] Z-Phe-Arg-AMC synthetic substrate in phosphate buffer. The plates were covered and incubated for 1 h at room temperature, protected from light. Following the incubation the reaction was stopped with 7.5% [final]acetic acid. Relative fluorescence was measured using the Ultra plate reader at a wavelength of 360 nm excitation and 425 nm emission.
Data was corrected for background fluorescence (minimum controls without enzyme).

CatK FRET Mean pIC50	Compound
8.553	(1R,2R)-N-(1-cyanocyclopropyl)-2-[(6-methyl-1,3,4,5-tetrahydro-2H-pyrido[4,3-b]indol-2-yl)carbonyl]cyclohexanecarboxamide [Example 6]

Same assay, conditions: 0.5 nM rhuman cathepsin K, Z-Phe-Arg-AMC substrate, 30 min pre-incubation, 1 h incubation at room temperature; mean of two separate occasions; read-out: CatK FRET Mean pIC50 (converted)

IC50 [nM]	Compound
1	N#CC1(NC(=O)[C@@H]2CCCC[C@H]2C(=O)N2CCc3[nH]c4c(OCc5ccccc5)cccc4c3C2)CC1 [Example 32, (1R,2R)-2-{[6-(benzyloxy)-1,3,4,5-tetrahydro-2H-pyrido[4,3-b]indol-2-yl]carbonyl}-N-(1-cyanocyclopropyl)cyclohexanecarboxamide]
1.03	N#CC1(NC(=O)[C@@H]2CCCC[C@H]2C(=O)N2CCc3[nH]c4c(O)cccc4c3C2)CC1 [Example 33, (1R,2R)-N-(1-cyanocyclopropyl)-2-[(6-hydroxy-1,3,4,5-tetrahydro-2H-pyrido[4,3-b]indol-2-yl)carbonyl]cyclohexanecarboxamide]
0.486	CCCOc1cccc2c3c([nH]c12)CCN(C(=O)[C@@H]1CCCC[C@H]1C(=O)NC1(C#N)CC1)C3 [Example 34, (1R,2R)-N-(1-cyanocyclopropyl)-2-[(6-propoxy-1,3,4,5-tetrahydro-2H-pyrido[4,3-b]indol-2-yl)carbonyl]cyclohexanecarboxamide]
0.558	N#CCOc1cccc2c3c([nH]c12)CCN(C(=O)[C@@H]1CCCC[C@H]1C(=O)NC1(C#N)CC1)C3 [Example 35, (1R,2R)-N-(1-cyanocyclopropyl)-2-{[6-(cyanomethoxy)-1,3,4,5-tetrahydro-2H-pyrido[4,3-b]indol-2-yl]carbonyl}cyclohexanecarboxamide]
0.324	CN(C)CCOc1cccc2c3c([nH]c12)CCN(C(=O)[C@@H]1CCCC[C@H]1C(=O)NC1(C#N)CC1)C3 [Example 36, (1R,2R)-N-(1-cyanocyclopropyl)-2-(6-(2-(dimethylamino)ethoxy)-2,3,4,5-tetrahydro-1H-pyrido[4,3-b]indole-2-carbonyl)cyclohexanecarboxamide]
3.2	N#CC1(NC(=O)[C@@H]2CCCC[C@H]2C(=O)N2CCc3[nH]c4c(OCCN5CCOCC5)cccc4c3C2)CC1 [Example 37, (1R,2R)-N-(1-cyanocyclopropyl)-2-(6-(2-morpholinoethoxy)-2,3,4,5-tetrahydro-1H-pyrido[4,3-b]indole-2-carbonyl)cyclohexanecarboxamide]
1.64	N#CC1(NC(=O)[C@@H]2CCCC[C@H]2C(=O)N2CCc3[nH]c4c(OCCN5CCCC5)cccc4c3C2)CC1 [Example 38, (1R,2R)-N-(1-cyanocyclopropyl)-2-(6-(2-(pyrrolidin-1-yl)ethoxy)-2,3,4,5-tetrahydro-1H-pyrido[4,3-b]indole-2-carbonyl)cyclohexanecarboxamide]
0.728	N#CC1(NC(=O)[C@@H]2CCCC[C@H]2C(=O)N2CCc3[nH]c4c(OCCN5CCCCC5)cccc4c3C2)CC1 [Example 39, (1R,2R)-N-(1-cyanocyclopropyl)-2-(6-(2-(piperidin-1-yl)ethoxy)-2,3,4,5-tetrahydro-1H-pyrido[4,3-b]indole-2-carbonyl)cyclohexanecarboxamide]
10.8	CS(=O)(=O)n1c2c(c3ccccc31)CN(C(=O)[C@@H]1CCCC[C@H]1C(=O)NC1(C#N)CC1)CC2 [Example 40, (1R,2R)-N-(1-cyanocyclopropyl)-2-[(5-methanesulphonyl-1,3,4,5-tetrahydro-2H-pyrido[4,3-b]indol-2-yl)carbonyl]cyclohexanecarboxamide]
6.44	N#CC1(NC(=O)[C@@H]2CCCC[C@H]2C(=O)N2CCc3oc4ncccc4c3C2)CC1 [Example 41, (1R,2R)-2-(7,8-Dihydro-5H-furo[2,3-b:4,5-c′]dipyridine-6-carbonyl)-cyclohexanecarboxylic acid (1-cyano-cyclopropyl)-amide]
2.13	N#CC1(NC(=O)[C@@H]2CCCC[C@H]2C(=O)N2CCc3[nH]c4c5c(ccc4c3C2)OC(F)(F)O5)CC1 [Example 44, (1R,2R)-N-(1-cyanocyclopropyl)-2-(2,2-difluoro-7,8,9,10-tetrahydro-6H-[1,3]dioxolo[4,5-g]pyrido[4,3-b]indole-7-carbonyl)cyclohexanecarboxamide]
0.807	COc1cc(F)cc2c3c([nH]c12)CCN(C(=O)[C@@H]1CCCC[C@H]1C(=O)NC1(C#N)CC1)C3 [Example 45, (1R,2R)-N-(1-cyanocyclopropyl)-2-(8-fluoro-6-methoxy-2,3,4,5-tetrahydro-1H-pyrido[4,3-b]indole-2-carbonyl)cyclohexanecarboxamide]
